Tested on: not listed separately
Test: Determination of the log P values by HPLC (formic acid method)
Type: physicochemical
Conditions: reversed-phase HPLC column (C 18), reversed-phase column (C 18), acidic range (pH 3.4), 55° C.
Protocol: 1) Description of Method for Determination of the Log P Values (Formic Acid Method)
Eluents for determination in the acidic range (pH 3.4):
Eluent A: acetonitrile+1 ml of formic acid/liter. Eluent B: water+0.9 ml of formic acid/liter.
The lambda max values were determined in the maxima of the chromatographic signals using the UV spectra from 200 nm to 400 nm.

Structure (SMILES) | chromatographic logP
Cc1ccccc1-n1ccc(NC(=O)c2ccccc2Br)n1 [Compound I-1-1, 2-BromoN-[1-(2-methylphenyl)-1H-pyrazol-3-yl]benzamide] | 2.79
Nc1cnn(-c2ncc(F)cc2F)n1 [Ex.45-V, 2-(3,5-Difluoropyridin-2-yl)-2H-1,2,3-triazole-4-amine] | 0.65
Fc1cccc(F)c1-n1cccc1 [Ex. 46-I, 1-(2,6-Difluorophenyl)-1H-pyrrole] | 2.98

Further lines, results first:

chromatographic logP | Structure (SMILES)
3.06 | O=C(Nc1nn(-c2ccccc2Cl)cc1Cl)c1ccccc1C(F)(F)F [Compound I-1-15, N-[4-Chloro-1-(2-chlorophenyl)-1H-pyrazol-3-yl]-2-(trifluoromethyl)benzamide]
3.37 | O=C(Nc1nn(-c2ncc(F)cc2F)c2ccc(F)cc12)c1ccccc1C(F)(F)F [Compound I-5-2, N-[1-(3,5-Difluoropyridin-2-yl)-5-fluoro-1H-indazol-3-yl]-2-(trifluoromethyl)benzamide]
3.54 | O=C(Nc1nn(-c2ccccc2Cl)c2ccccc12)c1ccccc1C(F)(F)F [Compound I-5-8, N-[1-(2-Chlorophenyl)-1H-indazol-3-yl]-2-(trifluoromethyl)benzamide]
1.33 | O=C(Nc1cc[nH]n1)c1ccccc1C(F)(F)F [N-(1H-Pyrazol-3-yl)-2-(trifluoromethyl)benzamide]

Same assay, conditions: reversed-phase column (C 18), acidic range (pH 3.4), 55° C.

Structure (SMILES) | log P | chromatographic logP
CCN(C(=O)c1ccccc1Cl)c1ccn(-c2ccccc2Cl)n1 [Compound I-1-22] | 3.41 | 
O=C(Nc1ccn(-c2c(Cl)cccc2Cl)n1)c1ccccc1Cl [Compound I-1-121] | 2.84 | 
O=C(Nc1ccn(-c2c(F)cccc2F)n1)c1sccc1C(F)(F)F [Compound I-1-284] | 2.82 | 
O=C(Nc1cnn(-c2ccccc2Br)n1)c1ccccc1Cl [Compound I-2-7] | 2.93 | 
O=C(Nc1cnn(-c2ncc(F)cc2F)n1)c1ccsc1I [Compound I-2-72] | 2.44 | 
O=C(Nc1cnn(-c2ncc(F)cc2F)n1)c1ccccc1I [Compound I-2-73] | 2.39 | 
O=C(Nc1cnn(-c2ncc(C(F)(F)F)cc2Cl)n1)c1ccccc1I [Compound I-2-75] | 3.28 | 
O=C(Nc1cnn(-c2c(F)cccc2F)n1)c1cccnc1C(F)(F)F [Compound I-2-76] | 2.40 | 
O=C(Nc1cnn(-c2c(F)cccc2F)n1)c1c(F)cccc1F [Compound I-2-77] | 2.59 | 
Cn1cc(C(=O)Nc2cnn(-c3c(F)cccc3F)n2)c(C(F)F)n1 [Compound I-2-78] | 2.22 | 
O=C(Nc1cnn(-c2c(F)cccc2F)n1)c1nccnc1C(F)(F)F [Compound I-2-79] | 2.60 | 
O=C(Nc1cnn(-c2c(F)cccc2F)n1)c1ncccc1C(F)(F)F [Compound I-2-80] | 2.78 | 
O=C(Nc1cnn(-c2c(F)cccc2F)n1)c1sccc1C(F)(F)F [Compound I-2-82] | 2.95 | 
O=C(Nc1cnn(-c2ncc(F)cc2F)n1)c1sccc1C(F)(F)F [Compound I-2-85] | 2.50 | 
O=C(Nc1ccn(-c2c(F)cccc2F)c1)c1c(F)cccc1F [Compound I-3-2] | 2.68 | 
O=C(Nc1ccn(-c2c(F)cccc2F)c1)c1ccccc1I [Compound I-3-3] | 2.96 | 
COc1ccc(C(=O)Nc2ccn(-c3c(F)cccc3F)c2)c(Cl)c1 [Compound I-3-4] | 2.97 | 
O=C(Nc1ccn(-c2c(F)cccc2F)c1)c1occc1I [Compound I-3-6] | 2.96 | 
O=C(Nc1ccn(-c2c(F)cccc2F)c1)c1ccsc1I [Compound I-3-7] | 3.07 | 
O=C(NC1=NN(c2c(F)cccc2F)CC1)c1ccccc1Cl [Compound I-4-1] | 2.75 | 
O=C(NC1=NN(c2c(F)cccc2F)CC1)c1c(F)cccc1F [Compound I-4-3] | 2.59 | 
O=C(NC1=NN(c2c(F)cccc2F)CC1)c1ccccc1I [Compound I-4-4] | 2.31 | 
Cc1ccccc1C(=O)NC1=NN(c2c(F)cccc2F)CC1 [Compound I-4-5] | 2.21 | 
Cc1ccccc1C(=O)N(C(=O)c1cccnc1C)C1=NN(c2c(F)cccc2F)CC1 [Compound I-4-6] | 4.45 | 
O=C(NC1=NN(c2ccccc2Cl)CC1)c1ccccc1Br [Compound I-4-8] | 2.37 | 
Nc1cnn(-c2c(F)cccc2F)n1 [Ex. 21-IX, 2-(2,6-Difluorophenyl)-2H-1,2,3-triazole-4-amine] |  | 1.16
O=[N+]([O-])c1ccn(-c2c(F)cccc2F)c1 [Ex. 46-II, 1-(2,6-Difluorophenyl)-3-nitro-M-pyrrole] | 2.58 | 
CC(=O)Nc1ccn(-c2c(F)cccc2F)n1 [N-[1-(2,6-Difluorophenyl)-1H-pyrazol-3-yl]acetamide] |  | 1.33
CC(=O)NC1=NN(c2c(F)cccc2F)CC1 [N-[1-(2,6-Difluorophenyl)-4,5-dihydro-1H-pyrazol-3-yl]acetamide] |  | 1.46

Further lines, with some results ahead:

log P | Structure (SMILES) | chromatographic logP
2.91 | O=C(Nc1ccn(-c2ccc(F)cc2F)n1)c1ccccc1Cl [Compound I-1-211] | 
3.37 | O=C(Nc1ccn(-c2cccc(Cl)c2F)n1)c1ccccc1C(F)(F)F [Compound I-1-555] | 
3.28 | O=C(Nc1cnn(-c2ncc(C(F)(F)F)cc2Cl)n1)c1ccccc1C(F)(F)F [Compound I-2-74] | 
2.36 | O=C(Nc1cnn(-c2c(F)cccc2F)n1)c1ccncc1C(F)(F)F [Compound I-2-81] | 
2.36 | O=C(Nc1cnn(-c2c(F)cccc2F)n1)c1cnccc1C(F)(F)F [Compound I-2-83] | 
2.28 | O=C(Nc1cnn(-c2ncc(F)cc2F)n1)c1ncccc1C(F)(F)F [Compound I-2-84] | 
2.52 | O=C(Nc1ccn(-c2c(F)cccc2F)c1)c1cccnc1C(F)(F)F [Compound I-3-5] | 
2.34 | O=C(NC1=NN(c2c(F)cccc2F)CC1)c1ccccc1C(F)(F)F [Compound I-4-7] | 
3.09 | O=C(Nc1nn(-c2ncc(F)cc2F)c2ccccc12)c1ccccc1Br [Compound I-5-3] | 
2.67 | O=C(Nc1nn(-c2ncccc2F)c2ccccc12)c1ccccc1Br [Compound I-5-4] | 
3.98 | O=C(Nc1nn(-c2ncc(C(F)(F)F)cc2Cl)c2ccccc12)c1ccccc1Br [Compound I-5-5] | 
3.05 | O=C(Nc1nn(-c2cc(F)cnc2F)c2ccccc12)c1ccccc1Br [Compound I-5-6] | 
3.39 | O=C(Nc1nn(-c2cc(F)cnc2F)c2ccc(F)cc12)c1ccccc1C(F)(F)F [Compound I-5-7] | 
3.11 | O=C(Nc1nn(-c2ccccc2Cl)c2ccccc12)c1cccnc1C(F)(F)F [Compound I-5-9] | 
3.26 | N#Cc1cc(F)c(-n2nc(NC(=O)c3ccccc3C(F)(F)F)c3c(F)cccc32)cc1F [Compound I-5-10] | 
2.99 | N#Cc1cc(F)c(-n2nc(NC(=O)c3c(F)cccc3F)c3c(F)cccc32)cc1F [Compound I-5-11] | 

Tested on: Cooperia curticei
Test: Cooperia curticei test (COOPCU)
Type: in vivo
Conditions: application rate 4 ppm; nematode larvae; after 5 days
Protocol: Cooperia curticei Test (COOPCU)
Solvent: dimethyl sulphoxide
To produce a suitable preparation of active compound, 10 mg of active compound are mixed with 0.5 ml of dimethyl sulphoxide, and the concentrate is diluted with Ringer solution to the desired concentration.
Vessels containing the active compound preparation of the desired concentration are populated with about 40 nematode larvae (Cooperia curticei).
After 5 days, the kill in % is determined 100% means that all of the larvae have been killed; 0% means that none of the larvae have been killed.

Structure (SMILES) | efficacy (kill)
O=C(Nc1ccn(-c2c(F)cccc2F)n1)c1sccc1C(F)(F)F [Compound I-1-284] | 80%
O=C(Nc1ccn(-c2cccc(Cl)c2F)n1)c1ccccc1C(F)(F)F [Compound I-1-555] | 90%
O=C(Nc1cnn(-c2ccccc2Br)n1)c1ccccc1Cl [Compound I-2-7] | 80%

Same assay, conditions: application rate 100 ppm; nematode larvae; after 5 days

Structure (SMILES) | efficacy (kill)
CCN(C(=O)c1ccccc1Cl)c1ccn(-c2ccccc2Cl)n1 [Compound I-1-22] | 80%
O=C(Nc1ccn(-c2c(Cl)cccc2Cl)n1)c1ccccc1Cl [Compound I-1-121] | 80%
O=C(Nc1ccn(-c2ccc(F)cc2F)n1)c1ccccc1Cl [Compound I-1-211] | 80%

Tested on: Phaedon cochleariae
Test: Phaedon cochleariae spray test (PHAECO)
Type: in vivo
Conditions: foliar, 168 h, application rate 500 g/ha, larvae on Chinese cabbage leaf discs, after 7 days, read-out: efficacy
Protocol: Phaedon cochleariae Spray Test (PHAECO)
Solvents: 78.0 parts by weight of acetone • • 1.5 parts by weight of dimethylformamide
Emulsifier: 0.5 part by weight of alkylaryl polyglycol ether
To produce a suitable preparation of active compound, 1 part by weight of active compound is mixed with the stated amounts of solvents and emulsifier, and the concentrate is diluted with emulsifier-containing water to the desired concentration.
After 7 days, the efficacy in % is determined. 100% means that all of the beetle larvae have been killed; 0% means that none of the beetle larvae have been killed.

Structure (SMILES) | pest or weed control at 500 g/ha
Cc1ccccc1-n1ccc(NC(=O)c2ccccc2Br)n1 [Compound I-1-1, 2-BromoN-[1-(2-methylphenyl)-1H-pyrazol-3-yl]benzamide] | 100%
O=C(Nc1nn(-c2ccccc2Cl)cc1Cl)c1ccccc1C(F)(F)F [Compound I-1-15, N-[4-Chloro-1-(2-chlorophenyl)-1H-pyrazol-3-yl]-2-(trifluoromethyl)benzamide] | 100%

Source: US9802899B2, “Heterocyclic compounds as pesticides” (BAYER CROPSCIENCE AG, priority 2012, dated 2017)
